Measurements reported in patent US20240181022A1, “AMURINS LYSINS, AND LYSIN-ANTIMICROBIAL PEPTIDE (AMP) CONSTRUCTS ACTIVE AGAINST GRAM-NEGATIVE BACTERIA” (priority 2021, published 2024).
Where no end group is shown, it is not given here. [ ]: non-standard residue; d: D form.

Tests used:
[1] = tested on: K. pneumoniae; assay: Checkerboard synergy assay (FICI) against K. pneumoniae; assay type: cell-based, Klebsiella pneumoniae; details: K. pneumoniae HM-44
Procedure: (§1) Any known method to assess MIC may be used.
(§2) Checkerboards are constructed by first preparing columns of e.g., a 96-well polypropylene microtiter plate, wherein each well has the same amount of antibiotic diluted 2-fold along the horizontal axis. […] Bacteria are added to the drug combinations at concentrations of 1×10^5 […] in CAA, for example, with or without human serum or pulmonary surfactant. […] Summation fractional inhibitory concentrations (ΣFICs) are calculated for each drug and the minimum ΣFIC value (ΣFICmin) is used to determine the effect of the Chp peptide/antibiotic combination.
(§3) GN370 was further tested in combination with up to seven additional antibiotics (in addition to meropenem) against a variety of bacterial strains, including P. aeruginosa, A. baumannii, E. coli, E. cloacae, and K. pneumoniae. GN370 and the subject antibiotics were tested in a checkerboard assay format, and FICI values were determined, wherein ≤0.5 indicates synergy, >0.5-≤1 indicates additive; and >1 indicates indifferent.

[2] = tested on: P. aeruginosa; assay: Checkerboard synergy assay (FICI) with antibiotics against P. aeruginosa; assay type: cell-based, Pseudomonas aeruginosa
Procedure: as §1, §2
The synergy of GN370 with meropenem was evaluated against 3 different strains of P. aeruginosa and three different strains of B. cenocepacia.
as §3

[3] = tested on: E. coli; assay: Checkerboard synergy assay (FICI) against E. coli; assay type: cell-based, Escherichia coli; details: E. coli ATCC 25922
Text: In some embodiments, the Chp peptides disclosed herein or active fragments thereof reduce the minimum inhibitory concentration (MIC) of an antibiotic in the presence and/or absence of human serum, pulmonary surfactant, and/or sputum, including human sputum and human sputum from a cystic fibrosis patient. Any known method to assess MIC may be used. In some embodiments, a checkerboard assay is used to determine the effect of a Chp peptide or active fragment thereof on antibiotic concentration. The checkerboard assay is based on a modification of the CLSI method for MIC determination by broth microdilution (See Clinical and Laboratory Standards Institute (CLSI), CLSI. 2015. Methods for Dilution Antimicrobial Susceptibility Tests for Bacteria That Grow Aerobically; Approved Standard-10th Edition. Clinical and Laboratory Standards Institute, Wayne, PA, which is herein incorporated by reference in its entirety and Ceri et al. 1999. J. Clin. Microbiol. 37: 1771-1776, which is also herein incorporated by reference in its entirety).
Checkerboards are constructed by first preparing columns of e.g., a 96-well polypropylene microtiter plate, wherein each well has the same amount of antibiotic diluted 2-fold along the horizontal axis. […] The Chp peptide or active fragment thereof and antibiotic dilutions are then combined, so that each column has a constant amount of antibiotic and doubling dilutions of Chp peptide, while each row has a constant amount of Chp peptide and doubling dilutions of antibiotic. Each well thus has a unique combination of Chp peptide and antibiotic. Bacteria are added to the drug combinations at concentrations of 1×10^5 GFU/ml in CAA, for example, with or without human serum or pulmonary surfactant. […] Summation fractional inhibitory concentrations (ΣFICs) are calculated for each drug and the minimum ΣFIC value (ΣFICmin) is used to determine the effect of the Chp peptide/antibiotic combination.
as §3

[4] = tested on: A. baumannii; assay: Checkerboard synergy assay (FICI) against A. baumannii; assay type: cell-based, Acinetobacter baumannii; details: A. baumannii ATCC BAA-747
Procedure: as §1, §2, §3

[5] = tested on: E. cloacae; assay: Checkerboard synergy assay (FICI) against E. cloacae; assay type: cell-based, Enterobacter cloacae; details: E. cloacae ATCC 13047
Procedure: as §1, §2, §3

[6] = tested on: M. fortuitum; assay: MIC against M. fortuitum; assay type: cell-based, Mycobacterium fortuitum; details: M. fortuitum (ATCC 6841); CAAT media
[7] = tested on: M. smegmatis; assay: MIC against M. smegmatis; assay type: cell-based, Mycobacterium smegmatis; details: M. smegmatis (MC 155); CAAT media
[8] = tested on: M. tuberculosis; assay type: cell-based, Mycobacterium tuberculosis; details: M. tuberculosis (ATCC 35817); (ADC, T) media
[9] = tested on: M. kansasii; assay: MIC against M. kansasii; assay type: cell-based, Mycobacterium kansasii; details: M. kansasi (ATCC 12478); CAAT media
[10] = tested on: M. scrofulaceum; assay: MIC against M. scrofulaceum; assay type: cell-based, Mycobacterium scrofulaceum; details: M. scrofulaceum (ATCC 19981); CAAT media
[11] = tested on: M. avium; assay: MIC against M. avium; assay type: cell-based, Mycobacterium avium; details: M. avium (ATCC 700898); CAAT media
[12] = tested on: M. intracellulare; assay: MIC against M. intracellulare; assay type: cell-based, Mycobacterium intracellulare; details: M. intracellulare (ATCC 13950); CAAT media

Row | Substance | FICI of the antibiotic with GN370 [1] | FICI of the antibiotic with GN370 ([2]; P. aeruginosa ATCC 27853, checkerboard) | Antibiotic MIC (single agent) ([2]; P. aeruginosa strain AR-769) [µg/mL] | Antibiotic FIC ([2]; P. aeruginosa strain AR-769, in combination with GN370) | Antibiotic MIC (combo) ([2]; P. aeruginosa strain AR-769, in combination with GN370, in µg/mL) | FICI of the antibiotic with GN370 [3] | FICI of the antibiotic with GN370 [4] | FICI of the antibiotic with GN370 [5] | MIC [6] [µg/mL] | MIC [7] [µg/mL] | MIC [8] [µg/mL] | MIC [9] [µg/mL] | MIC [10] [µg/mL] | MIC [11] [Tg/mL] | MIC [12] [µg/mL]
1 | Colistin | 0.187 | 0.499 | 0.063 | 0.125 | 0.008 | 0.375 | 0.375 | 0.25 | – | – | – | – | – | – | –
2 | Gentamicin | 0.375 | – | – | – | – | 0.312 | 0.563 | 0.25 | – | – | – | – | – | – | –
3 | Unp2: SEQ ID NO: 20, unnamed protein product (MRRRRLSRRTSRRFFRKGLKVRRRNLRARPMRGGFRI) | – | – | – | – | – | – | – | – | 2 | 4 | 8 | 2 | 4 | 0.5 | 1
4 | Unp3-M1: Modified variant of Unp3, SEQ ID NO: 98 (MA[dR][dR][dK][dK]M[dK]G[dK][dR]D[dK][dR]VF[dK]QTAN[dK]T[dK]AINISP[dK]NM[dR]GGT[dR]L) | – | – | – | – | – | – | – | – | 4 | 8 | 4 | 16 | 8 | 8 | >64
5 | Unp4: SEQ ID NO: 94, Marine gokushovirus (MIVRRHKMSRRRSRKLFSKTASRTRSKNLRSRPMRGGYRI; listed as Marine gokushovirus) | – | – | – | – | – | – | – | – | 4 | 16 | 16 | 4 | 4 | 1 | 4
